Data on 60 compounds can be found in the METLIN SMRT retention time set (Domingo-Almenara et al. 2019).

This series can be described thus: gradient 5% acetonitrile 3 min, to 50% in 2 min, to 85% in 15 min, held 3 min, 100 µL/min. Particulars: column: Zorbax Extend-C18 2.1 x 50 mm; eluents: water / acetonitrile, 0.1% formic acid. In a few lines: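 Mixtures of ~100 pure standards were chromatographed on a Zorbax Extend-C18 column (2.1 × 50 mm, 1.8 μm) at 100 μL/min using water and acetonitrile, each with 0.1% formic acid. Detection used a quadrupole time-of-flight mass spectrometer in positive and negative ionization mode, and data collection spanned 3 months. Retention time was obtained from adduct peaks picked computationally and each checked manually.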
`CC(=O)Nc1ccc(C(=O)NC2CCN(c3cc(-c4ccccc4)[nH]n3)C2)cc1` (stereo not given) registered an RP-LC retention time of 626 s. The figure for `COCCCn1cc(C(=O)Nc2cccc(C)n2)c2nn(-c3ccccc3)c(=O)c-2c1` is 864 s; for `COC(=O)c1cc(C)nc2c1c(=O)n(Cc1ccc(Cl)cc1)c(=O)n2C` it is 1080 s; for `O=C1CC(c2nc(-c3ccc(Br)cc3)no2)CN1c1ccccc1` (stereo not given) it is 1080 s. The figure for `CCC1CCCCN1CCNC(=O)C1CCCN(c2cnc3nccnc3c2)C1` (stereo not given) is 569 s. To `CCCN1C(=O)CN(S(C)(=O)=O)CC1(C)C(=O)NCc1ccc(C)cc1` (stereo not given) belongs 758 s; to `CC(=O)Nc1nc2ccc(CC(=O)Nc3cccc(Cl)c3)cc2s1`, 790 s. Regarding `Cc1cccc(-n2c(=O)c3c(cc(C)n3C)n(CC(=O)Nc3ccc4c(c3)OCO4)c2=O)c1`, the RP-LC retention time amounted to 837 s. To `NS(=O)(=O)c1ccc(CCNC(=O)Cc2cc(-c3cccs3)on2)cc1` belongs 669 s; to `O=c1n(Cc2ccccc2F)nc2c(S(=O)(=O)N3CCCCCC3)cccn12`, 938 s; to `COc1ccc(NC(=O)N2CCC(n3c(-c4ccoc4)nc4cccnc43)C2)cc1` (stereo not given), 698 s.

The compound `CCc1ccc(N2CC(c3noc(-c4ccccc4Cl)n3)CC2=O)cc1` (stereo not given) had an RP-LC retention time of 1050 s. To `O=c1ccc(-c2ccccc2)nn1Cc1nc(-c2ccc(Br)cc2)no1` belongs 1100 s; to `COc1cc(-c2noc(-c3nn(-c4cccc(F)c4)ccc3=O)n2)cc(OC)c1OC`, 824 s.

In turn, `CC1CN(C(=O)NCC2CCCO2)c2ccccc2O1` (stereo not given) gave an RP-LC retention time of 754 s. For `Cc1ccc(C(=O)N2CCC(n3nc(-c4ccsc4)ccc3=O)CC2)cc1`, the RP-LC retention time is 835 s.

The compound `COC(=O)c1ccc(-c2nc3cnccn3c2Nc2cccc(OC)c2)cc1` yielded an RP-LC retention time of 846 s. The figure for `Cc1noc(C2(NC(=O)Cc3ccc(F)cc3)CCCCC2)n1` is 837 s. The figure for `O=C(NCC(F)(F)F)c1ccc(=O)[nH]c1` is 534 s. The figure for `Cc1cccc(OCc2nc(CCN(C)C(=O)NC3CCCCC3)no2)c1` is 938 s; for `O=C(Nc1ccc(Cl)cc1)N1CCC(n2cnc3cc(F)ccc3c2=O)CC1` it is 848 s. Consider `CCOC(=O)Cc1ccc(NC(=O)N2CCN(CC)c3ncccc32)cc1`, for which the RP-LC retention time worked out at 641 s. To `CC(C)n1c(=O)oc2cc(-c3noc(-c4ccccc4)n3)ccc21` belongs 1060 s; to `COc1ccc(-c2nc3ncccn3c2Nc2ccc(C)cc2C)cc1`, 800 s. The figure for `CC1=C(c2ccc(F)cc2)S(=O)(=O)N=C1N1CCC(NC(=O)C2CCCO2)CC1` (stereo not given) is 716 s. The figure for `c1ccc2c(c1)OCC(c1nc(-c3ccc(-n4ccnc4)nc3)no1)O2` (stereo not given) is 707 s.

Regarding `COc1ccccc1N1CCN(c2cc(SCC(=O)Nc3ccc(C#N)cc3)ncn2)CC1`, the RP-LC retention time came to 890 s. Take `CC1CS(=O)(=O)N(c2ccc(C(=O)NCCc3c[nH]c4ccccc34)c(Cl)c2)C1=O` (stereo not given): the RP-LC retention time turned out to be 809 s. Compound `COc1ccc(NC(=O)c2sc(-c3cn(C(C)C)c4ncccc34)nc2C)cc1OC` showed an RP-LC retention time of 944 s. The figure for `CCc1ccc(CNC(=O)c2cn3c(n2)COCC3)cc1` is 710 s. To `O=C(Cn1cnc2nc(N3CCC(C(=O)NC4CC4)CC3)sc2c1=O)NCc1ccco1` belongs 610 s; to `CCc1cc(=O)n(CC(=O)Nc2ccc3c(c2)OCO3)c(N2CCOCC2)n1`, 671 s; to `Cc1ccc(-c2[nH]ncc2CN2CCC3(CC2)CC(C)(O)CCO3)cc1` (stereo not given), 597 s. `CN(c1ccccc1)S(=O)(=O)c1ccc(C(=O)Nc2nnc(C3=COCCO3)o2)cc1` had an RP-LC retention time of 744 s. The figure for `CCn1cc(-c2nc(C)c(C(=O)NCc3cccc(F)c3)s2)c2cccnc21` is 947 s; for `CCc1nc2cc(-c3noc(COc4ccccc4C)n3)ccc2o1` it is 1270 s. The figure for `CCS(=O)(=O)N1CCN(C(=O)c2cc(-c3ccc(OC)cc3)n[nH]2)CC1` is 654 s. The figure for `CC1CCN(C(=O)Cn2c(CNC(=O)c3ccco3)nc3ccccc32)CC1` is 650 s; for `Cn1cc(S(=O)(=O)N2CCOCC2)cc1C(=O)Nc1ccccc1` it is 801 s. Compound `COc1cccc(NC(=O)N2CCC3(C2)C(=O)Nc2ccc(OC)cc23)c1` (stereo not given) displayed an RP-LC retention time of 701 s. To `COc1cccc(NC(=O)Nc2c(-c3ccccc3)nc3ccccn23)c1` belongs 665 s; to `CCc1ccc(OCC(=O)Nc2cnn(CC)c(=O)c2N2CCOCC2)cc1`, 981 s; to `CCOc1ccc(NC(=O)N2CCN(c3ccc(=O)n(-c4ccc(F)cc4)n3)CC2)cc1`, 804 s. As to `COCCn1c(CCCC(=O)NCc2ccc(C(C)C)cc2)nc2cccnc21`, the RP-LC retention time worked out at 741 s. With `COc1cc(NC(=O)N2CCc3cn(C)c4cccc(c34)C2)cc(OC)c1OC`, the RP-LC retention time is 801 s. To `COc1ccc(-c2nc3ncccn3c2Nc2cc(C)ccc2C)cc1` belongs 792 s. The figure for `COc1ccc(CC(=O)Nc2nc3c(s2)COCC3)cc1OC` is 638 s; for `O=C(c1ccco1)N1CCCn2nc(-c3cccc(Cl)c3)cc2C1` it is 861 s. The figure for `CCN(CC)CCNC(=O)Cc1c(C)nc2c(-c3ccc(F)cc3)c(C)nn2c1C` is 661 s. Compound `Cc1ccc(C)c(N2CCN(c3ccnc(SCC(=O)Nc4ccc(C)c(F)c4)n3)CC2)c1` returned an RP-LC retention time of 955 s. The figure for `c1cc(-c2cnn3cc(-c4ccc(OCCN5CCCCC5)cc4)cnc23)ccn1` is 584 s; for `COCCNc1ncc(C(=O)O)c(-c2ccc(OC)cc2)n1` it is 658 s. The figure for `CCc1nc2cccnc2n1-c1ccc(C(=O)N(C)C)cc1` is 589 s; for `CN1C(=O)c2cccn2CC1CNS(=O)(=O)Cc1ccccc1F` (stereo not given) it is 670 s. To `COc1ccccc1CNC(=O)Cc1nnc(-c2ccccn2)o1` belongs 671 s; to `O=c1n(CCOc2ccccc2)nc2ccc(S(=O)(=O)N3CCCC3)cn12`, 842 s. As to `COc1ccccc1-c1noc(C2CCCN2C(=O)Nc2ccccc2Br)n1` (stereo not given), the RP-LC retention time was 972 s. To `CC(C)NC(=O)c1nnc(-c2ccc(S(=O)(=O)N3CCCC3)cc2)o1` belongs 779 s; to `CCC(=O)N1CCc2cc(-c3ccc(C(=O)NCCc4ccco4)cc3)ccc21`, 888 s; to `CCCS(=O)(=O)N1CCC(F)(c2nc(-c3ccccc3)no2)CC1`, 1080 s.
